Assay results reported in patent publication US20250313574A1, “SIALIC ACID DERIVATIVES AND METHODS OF USING SAME” (EISAI R&D MANAGEMENT CO., LTD., priority 2022, published 2025).

What was measured:
[1] = molecular target: Recombinant human CD33 protein (Homo sapiens (Human), UniProt P20138); test: CD33 competitive binding assay for HTS drug screen (fluorescent multivalent sialic acid probe)
Procedure, shortened: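 Inhibition was read as reduced retention of a fluorescent multivalent sialic acid complex (final 5 μM neutravidin, 15 μM A-375, 5 μM biotin-4-FITC) on plate-immobilized human CD33. Compound was added first, the probe followed for 30 min at room temperature in PBS with 0.2% Tween-20 and 0.5% BSA, and FITC was measured after a wash.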

[2] = molecular target: Recombinant Human Siglec-3/CD33 protein (His-CD33) (Homo sapiens (Human), UniProt P20138); test: Differential scanning fluorimetry (DSF) thermal shift assay; format: binding; settings: thermal melt shift of 0.5 μM CD33 protein with 50 μM compound
Method: In the DSF assay, as the temperature increases, the protein gets gradually unfolded, exposing hydrophobic regions in which a fluorescent dye binds causing the fluorescence signal to increase. The midpoint of the unfolding transitions is called the thermal melt (Tm) or denaturation temperature and the Tm was defined as the peak apex in the derivative curve. Here, the Tm temperature of CD33 in the presence and absence of A-001 at a concentration of 50 μM was examined.
Recombinant Human Siglec-3/CD33 protein was purchased from Acros (catalog no. CD3-H5226) and reagents used in this study are shown in the Table 1 below.
Lyophilized CD33 protein was received in 1 mg aliquots from Acros. The protein was diluted with 2.5 mL of sterile water to a concentration of 400 μg/mL (14.5 μM), aliquoted into 138 μL aliquots and stored as at −20° C. On the day of analysis, the protein was thawed and […] solution was diluted to […] using buffer containing 133 mM NaCl, 133 mM phosphate buffered solution and 13.9× Sypro Orange dye in water in a quantity to cover the amount of samples tested on the day of the analysis.
200 μM stock solutions of A-001 containing 0.2% DMSO in water was supplied by compound management in a 384-well plate format.
Sample matrix were prepared by adding 7.5 μL of the protein buffer stock solution followed by addition of 2.5 μL of the 200 μM compound solutions in 384-well PCR plates to give a final volume of 10 μL per well consisting of 0.5 μM CD33 protein, 100 mM phosphate buffered solution pH 7.4, 100 mM NaCl, 10× SYPRO orange dye and 50 μM compound concentration (final DMSO concentration ˜0.2%). Using the Applied Biosystems® Protein Thermal Shift software (algorithm version 1.3.), the denaturation temperature or thermal melt (Tm) of the unbound and ligand bound CD33 protein was automatically assigned and the difference in thermal melt (ΔTm D) was calculated using the derivative curve by the Protein Thermal Shift software.
Recombinant human CD33 protein (0.5 μM) was incubated under buffered conditions in the presence of SYPRO orange dye, a temperature gradient was applied and a thermogram was produced by monitoring the fluorescence. The Tm was defined as the peak apex in the derivative curve in the study. […] Addition of […] of A-001 (Blue lines) to the CD33 protein induced significant Tm increases (ΔTm D) of 12.2±0.7° C.

Chain of Recombinant Human Siglec-3/CD33 protein (His-CD33) (P20138 18-259): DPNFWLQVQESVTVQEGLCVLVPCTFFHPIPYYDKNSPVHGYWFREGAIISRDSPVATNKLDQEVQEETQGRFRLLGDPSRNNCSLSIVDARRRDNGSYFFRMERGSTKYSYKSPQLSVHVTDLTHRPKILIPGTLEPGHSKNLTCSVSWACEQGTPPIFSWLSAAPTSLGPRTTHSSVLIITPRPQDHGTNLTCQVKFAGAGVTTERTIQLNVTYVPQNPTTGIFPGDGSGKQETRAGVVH
Chain of Recombinant human CD33 protein (P20138 18-259): as above

| SMILES | EC50 [1] [nM] | DSF (dTmD) [2] |
| --- | --- | --- |
| CC(=O)N[C@H]1[C@H]([C@H](O)[C@H](O)CNC(=O)c2cc(C)c(O)c(C)c2)O[C@@](CCN2CCOC[C@@]23CCN(C(=O)C2(C)CCC2)C3)(C(=O)O)C[C@@H]1O [A-103] | 1020 | 6.6 |
| CC(=O)N[C@H]1[C@H]([C@H](O)[C@H](O)CNC(=O)c2cc(C)c3[nH]ccc3c2)O[C@@](CCN2CCOC[C@@]23CCN(C(=O)OC(C)(C)C)C3)(C(=O)O)C[C@@H]1O [A-109] | 6 | 16.6 |
| CC(=O)N[C@H]1[C@H]([C@H](O)[C@H](O)CNC(=O)c2ccc3ncsc3c2)O[C@@](CCN2CCOC[C@@]23CCN(C(=O)OC(C)(C)C)C3)(C(=O)O)C[C@@H]1O [A-110] | 30 | 12.2 |
| CC(=O)N[C@H]1[C@H]([C@H](O)[C@H](O)CNC(=O)c2cc(C)c3[nH]ncc3c2)O[C@@](CCN2CCOC[C@@]23CCN(C(=O)OC(C)(C)C)C3)(C(=O)O)C[C@@H]1O [A-111] | 16 | 12.5 |
| CC(=O)N[C@H]1[C@H]([C@H](O)[C@H](O)CNC(=O)c2ccc3[nH]cc(C)c3c2)O[C@@](CCN2CCOC[C@@]23CCN(C(=O)OC(C)(C)C)C3)(C(=O)O)C[C@@H]1O [A-112] | 22 | 12.5 |
| CC(=O)N[C@H]1[C@H]([C@H](O)[C@H](O)CNC(=O)c2c[nH]c(C)c2)O[C@@](CCN2CCOC[C@@]23CCN(C(=O)OC(C)(C)C)C3)(C(=O)O)C[C@@H]1O [A-113] | 34 | 11.1 |
| CC(=O)N[C@H]1[C@H]([C@H](O)[C@H](O)CNC(=O)c2ccc3ncccc3n2)O[C@@](CCN2CCOC[C@@]23CCN(C(=O)OC(C)(C)C)C3)(C(=O)O)C[C@@H]1O [A-114] | 22 | 12.4 |
| CC(=O)N[C@H]1[C@H]([C@H](O)[C@H](O)CNC(=O)c2cc(Br)c(O)c(Br)c2)O[C@@](CCN2CCOC[C@@]23CCN(C(=O)OC(C)(C)C)C3)(C(=O)O)C[C@@H]1O [A-115] | 7 | 15.1 |
| CC(=O)N[C@H]1[C@H]([C@H](O)[C@H](O)CNC(=O)c2cccc(Br)c2)O[C@@](CCN2CCOC[C@@]23CCN(C(=O)OC(C)(C)C)C3)(C(=O)O)C[C@@H]1O [A-116] | 42 | 12.4 |
| CC(=O)N[C@H]1[C@H]([C@H](O)[C@H](O)CNC(=O)c2ccc(O)c(C)c2)O[C@@](CCN2CCOC[C@@]23CCN(C(=O)OC(C)(C)C)C3)(C(=O)O)C[C@@H]1O [A-117] | 28 | 12.4 |
| COc1c(C)cc(C(=O)NC[C@@H](O)[C@@H](O)[C@@H]2O[C@@](CCN3CCOC[C@@]34CCN(C(=O)OC(C)(C)C)C4)(C(=O)O)C[C@H](O)[C@H]2NC(C)=O)cc1C [A-118] | 60 | 12.1 |
| CC(=O)N[C@H]1[C@H]([C@H](O)[C@H](O)CNC(=O)c2cc(C)c(N)c(C)c2)O[C@@](CCN2CCOC[C@@]23CCN(C(=O)OC(C)(C)C)C3)(C(=O)O)C[C@@H]1O [A-119] | 17 | 14.0 |
| COc1ccc(C(=O)NC[C@@H](O)[C@@H](O)[C@@H]2O[C@@](CCN3CCOC[C@@]34CCN(C(=O)OC(C)(C)C)C4)(C(=O)O)C[C@H](O)[C@H]2NC(C)=O)cc1OC [A-120] | 40 | 12.2 |
| CC(=O)N[C@H]1[C@H]([C@H](O)[C@H](O)CNC(=O)c2ccc3occc3c2)O[C@@](CCN2CCOC[C@@]23CCN(C(=O)OC(C)(C)C)C3)(C(=O)O)C[C@@H]1O [A-121] | 29 | 13.6 |
| CC(=O)N[C@H]1[C@H]([C@H](O)[C@H](O)CNC(=O)c2cc3ncccn3n2)O[C@@](CCN2CCOC[C@@]23CCN(C(=O)OC(C)(C)C)C3)(C(=O)O)C[C@@H]1O [A-122] | 32 | 12.4 |
| COc1cc(C(=O)NC[C@@H](O)[C@@H](O)[C@@H]2O[C@@](CCN3CCOC[C@@]34CCN(C(=O)OC(C)(C)C)C4)(C(=O)O)C[C@H](O)[C@H]2NC(C)=O)cc(OC)c1O [A-123] | 68 | 11.0 |

| SMILES | EC50 [1] [nM] | DSF (dTmD) [2] |
| --- | --- | --- |
| CC(=O)N[C@H]1[C@H]([C@H](O)[C@H](O)CNC(=O)c2ccc3c(cnn3C)c2)O[C@@](CCN2CCOC[C@@]23CCN(C(=O)OC(C)(C)C)C3)(C(=O)O)C[C@@H]1O [A-124] | 28 | 13.4 |
| CC(=O)N[C@H]1[C@H]([C@H](O)[C@H](O)CNC(=O)c2ccc3[nH]nc(C)c3c2)O[C@@](CCN2CCOC[C@@]23CCN(C(=O)OC(C)(C)C)C3)(C(=O)O)C[C@@H]1O [A-125] | 23 | 13.3 |
| CC(=O)N[C@H]1[C@H]([C@H](O)[C@H](O)CNC(=O)c2cnc3[nH]ncc3c2)O[C@@](CCN2CCOC[C@@]23CCN(C(=O)OC(C)(C)C)C3)(C(=O)O)C[C@@H]1O [A-126] | 50 | 11.2 |
| CC(=O)N[C@H]1[C@H]([C@H](O)[C@H](O)CNC(=O)c2cnc3[nH]nc(C)c3c2)O[C@@](CCN2CCOC[C@@]23CCN(C(=O)OC(C)(C)C)C3)(C(=O)O)C[C@@H]1O [A-127] | 59 | 11.7 |
| CC(=O)N[C@H]1[C@H]([C@H](O)[C@H](O)CNC(=O)c2ccc3[nH]nc(F)c3c2)O[C@@](CCN2CCOC[C@@]23CCN(C(=O)OC(C)(C)C)C3)(C(=O)O)C[C@@H]1O [A-128] | 50 | 11.5 |
| CC(=O)N[C@H]1[C@H]([C@H](O)[C@H](O)CNC(=O)c2ccc3[nH]ccc3c2)O[C@@](CCN2CCOC[C@@]23CCN(C(=O)OC(C)(C)C)C3)(C(=O)O)C[C@@H]1O [A-129] | 10 | 15.0 |
| CC(=O)N[C@H]1[C@H]([C@H](O)[C@H](O)CNC(=O)c2ccc(F)c(Br)c2)O[C@@](CCN2CCOC[C@@]23CCN(C(=O)OC(C)(C)C)C3)(C(=O)O)C[C@@H]1O [A-132] | 51 | 12.4 |
| CC(=O)N[C@H]1[C@H]([C@H](O)[C@H](O)CNC(=O)c2cc(Br)[nH]n2)O[C@@](CCN2CCOC[C@@]23CCN(C(=O)OC(C)(C)C)C3)(C(=O)O)C[C@@H]1O [A-133] | 46 | 11.4 |
| CC(=O)N[C@H]1[C@H]([C@H](O)[C@H](O)CNC(=O)c2cc(C)c3[nH]c(CO)cc3c2)O[C@@](CCN2CCOC[C@@]23CCN(C(=O)OC(C)(C)C)C3)(C(=O)O)C[C@@H]1O [A-134] | 14 | 15.8 |
| CC(=O)N[C@H]1[C@H]([C@H](O)[C@H](O)CNC(=O)c2ccc3[nH]cnc3c2)O[C@@](CCN2CCOC[C@@]23CCN(C(=O)OC(C)(C)C)C3)(C(=O)O)C[C@@H]1O [A-135] | 101 | 9.6 |
| CC(=O)N[C@H]1[C@H]([C@H](O)[C@H](O)CNC(=O)c2cn(C)nc2C)O[C@@](CCN2CCOC[C@@]23CCN(C(=O)OC(C)(C)C)C3)(C(=O)O)C[C@@H]1O [A-136] | 440 | 6.5 |
| CC(=O)N[C@H]1[C@H]([C@H](O)[C@H](O)CNC(=O)c2ccc3occc3c2)O[C@@](CCN2CCOC[C@@]23CCN(C(=O)OC(C)(C)C)C3)(C(=O)O)C[C@@H]1O [A-137] | 76 | 12.7 |
| CC(=O)N[C@H]1[C@H]([C@H](O)[C@H](O)CNC(=O)c2ccc3c(=O)n(C)cnc3c2)O[C@@](CCN2CCOC[C@@]23CCN(C(=O)OC(C)(C)C)C3)(C(=O)O)C[C@@H]1O [A-138] | 600 | 6.6 |
| CC(=O)N[C@H]1[C@H]([C@H](O)[C@H](O)CNC(=O)c2c[nH]c(C)n2)O[C@@](CCN2CCOC[C@@]23CCN(C(=O)OC(C)(C)C)C3)(C(=O)O)C[C@@H]1O [A-139] | 610 | 6.2 |
| CC(=O)N[C@H]1[C@H]([C@H](O)[C@H](O)CNC(=O)c2nc(C)oc2C)O[C@@](CCN2CCOC[C@@]23CCN(C(=O)OC(C)(C)C)C3)(C(=O)O)C[C@@H]1O [A-140] | 350 | 7.5 |
| CC(=O)N[C@H]1[C@H]([C@H](O)[C@H](O)CNC(=O)c2cc(C)c(C(N)=O)c(C)c2)O[C@@](CCN2CCOC[C@@]23CCN(C(=O)OC(C)(C)C)C3)(C(=O)O)C[C@@H]1O [A-141] | 350 | 7.0 |
